The values below come from patent publication US8580773B2, “Small-molecule inhibitors of the androgen receptor” (The Regents of the University of California, priority 2008, dated 2013).

The target of assay [1] is T1, endogenous AR (Homo sapiens, UniProt P10275).
T1 construct: that each express endogenous AR; endogenous in cells; host or cells: LAPC4
T1 sequence (P10275 1-920): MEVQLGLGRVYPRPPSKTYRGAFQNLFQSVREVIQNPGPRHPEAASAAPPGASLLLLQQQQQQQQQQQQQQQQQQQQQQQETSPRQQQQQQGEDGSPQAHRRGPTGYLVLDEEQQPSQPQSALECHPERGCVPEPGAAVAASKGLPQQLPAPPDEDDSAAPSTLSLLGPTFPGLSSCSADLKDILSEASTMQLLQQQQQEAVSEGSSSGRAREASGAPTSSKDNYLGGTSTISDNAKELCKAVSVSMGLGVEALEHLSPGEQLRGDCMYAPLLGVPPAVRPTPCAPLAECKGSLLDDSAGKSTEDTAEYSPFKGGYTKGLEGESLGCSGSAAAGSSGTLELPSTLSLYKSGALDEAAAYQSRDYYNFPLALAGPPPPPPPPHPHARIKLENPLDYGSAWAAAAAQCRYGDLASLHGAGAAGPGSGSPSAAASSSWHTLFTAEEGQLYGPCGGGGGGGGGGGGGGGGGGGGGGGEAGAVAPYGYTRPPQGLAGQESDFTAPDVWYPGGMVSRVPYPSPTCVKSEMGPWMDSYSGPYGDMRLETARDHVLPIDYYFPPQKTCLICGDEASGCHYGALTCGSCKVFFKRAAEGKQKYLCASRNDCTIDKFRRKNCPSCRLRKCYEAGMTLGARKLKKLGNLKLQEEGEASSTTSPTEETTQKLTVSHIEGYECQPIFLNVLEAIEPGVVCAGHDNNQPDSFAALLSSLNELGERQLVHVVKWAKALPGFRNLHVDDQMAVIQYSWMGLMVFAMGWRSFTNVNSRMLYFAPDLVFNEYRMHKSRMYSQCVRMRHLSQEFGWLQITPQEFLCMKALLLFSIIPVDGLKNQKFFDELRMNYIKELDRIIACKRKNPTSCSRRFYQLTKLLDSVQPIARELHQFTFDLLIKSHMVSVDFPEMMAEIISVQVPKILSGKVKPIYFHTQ
The format is cell-based. The conditions noted are these: LAPC4, 3 nM DHT plus 1 μM BIC, 100 nM PP or 100 nM HH. Here is the method:
(§1) LAPC4 and LNCaP cells were grown in the presence or absence of 3 nM DHT in charcoal-stripped media, with or without the inhibitors. RNA was harvested using an RNAeasy kit (Qiagen) and reverse transcribed (MMLV-RT, Invitrogen). Real-time PCR was carried out on a 7300 Real Time PCR System (Applied Biosystems) using SYBR green as the detecting dye and Rox as the reference dye. The androgen responsive genes kalikrein 3, or PSA (KLK3) [Cleutjens, K. B., et al., Two androgen response regions cooperate in steroid hormone regulated activity of the prostate-specific antigen promoter. J Biol Chem, 1996. 271(11): p. 6379-88; Nelson, P. S., et al., The program of androgen-responsive genes in neoplastic prostate epithelium. Proc Natl Acad Sci USA, 2002. 99(18): p. 11890-5), metalloproteinase 16 (MMP16) (Nelson, P. S., et al., The program of androgen-responsive genes in neoplastic prostate epithelium. Proc Natl Acad Sci USA, 2002. 99(18): p. 11890-5), transmembrane protease serine 2 (TMPRSS2) (Nelson, P. S., et al., The program of androgen-responsive genes in neoplastic prostate epithelium. Proc Natl Acad Sci USA, 2002. 99(18): p. 11890-5; […] Vaarala, M. H., et al., Expression of transmembrane serine protease TMPRSS2 in mouse and human tissues. J Pathol, 2001. 193(1): p. 134-40), FK506-binding immunophilin 51 (FKBP51) (Nelson, P. S., et al., The program of androgen-responsive genes in neoplastic prostate epithelium. Proc Natl Acad Sci USA, 2002. 99(18): p. 11890-5; Amler, L. C., et al., Dysregulated expression of androgen-responsive and nonresponsive genes in the androgen-independent prostate cancer xenograft model CWR22-R1. Cancer Res, 2000. 60(21): p. 6134-41; Velasco, A. M., et al., Identification and validation of novel androgen-regulated genes in prostate cancer. Endocrinology, 2004. 145(8): p. 3913-24; Magee, J. A., et al., Direct, androgen receptor-mediated regulation of the FKBP5 gene via a distal enhancer element. Endocrinology, 2006. 147(1): p. 590-8), G-protein coupled receptor RDC1 homolog, or chemokine orphan receptor 1 (RDC-1) (Nelson, P. S., et al., The program of androgen-responsive genes in neoplastic prostate epithelium. Proc Natl Acad Sci USA, 2002. 99(18): p. 11890-5), NK homeobox family member 3 (NRx3.1) (Nelson, P. S., et al., The program of androgen-responsive genes in neoplastic prostate epithelium. Proc Natl Acad Sci USA, 2002. 99(18): p. 11890-5; Bieberich, C. J., et al., Prostate-specific and androgen-dependent expression of a novel homeobox gene. J Biol Chem, 1996. 271(50): p. 31779-82; […]) were all normalized to the transcription of the housekeeping ribosomal gene (RPL19). All samples were done in triplicate and separately normalized.

For assay [2], the target named is T2, endogenous AR (Homo sapiens, UniProt P10275, T878A).
T2 construct: that each express endogenous AR; endogenous in cells; host or cells: LNCaP
T2 sequence (P10275 whole entry T878A): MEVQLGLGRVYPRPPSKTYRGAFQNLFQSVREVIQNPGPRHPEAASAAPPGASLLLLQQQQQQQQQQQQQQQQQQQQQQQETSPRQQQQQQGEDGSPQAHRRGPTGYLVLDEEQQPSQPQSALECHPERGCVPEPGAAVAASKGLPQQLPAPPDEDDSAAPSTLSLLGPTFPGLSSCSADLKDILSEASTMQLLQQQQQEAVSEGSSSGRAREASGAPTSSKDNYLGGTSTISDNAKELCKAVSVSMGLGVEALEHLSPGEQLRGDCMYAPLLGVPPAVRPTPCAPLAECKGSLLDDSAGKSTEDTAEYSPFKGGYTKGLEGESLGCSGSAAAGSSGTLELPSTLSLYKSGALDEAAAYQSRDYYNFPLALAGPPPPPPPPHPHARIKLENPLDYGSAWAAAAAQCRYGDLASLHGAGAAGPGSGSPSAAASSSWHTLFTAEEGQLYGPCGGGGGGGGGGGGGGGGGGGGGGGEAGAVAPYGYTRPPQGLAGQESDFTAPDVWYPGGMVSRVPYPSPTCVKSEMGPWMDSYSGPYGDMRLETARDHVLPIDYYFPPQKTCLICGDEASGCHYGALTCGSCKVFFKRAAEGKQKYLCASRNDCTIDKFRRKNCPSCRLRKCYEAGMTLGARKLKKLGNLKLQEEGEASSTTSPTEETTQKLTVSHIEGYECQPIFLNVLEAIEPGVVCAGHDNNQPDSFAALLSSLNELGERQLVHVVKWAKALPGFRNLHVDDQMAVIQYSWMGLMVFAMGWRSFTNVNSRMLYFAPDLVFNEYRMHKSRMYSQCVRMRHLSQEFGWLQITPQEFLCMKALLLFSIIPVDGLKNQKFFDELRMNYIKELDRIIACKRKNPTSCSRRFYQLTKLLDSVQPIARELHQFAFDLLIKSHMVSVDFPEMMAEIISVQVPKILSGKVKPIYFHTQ
The format is cell-based. As to conditions: LNCaP, 3 nM DHT plus 1 μM BIC, 100 nM PP or 100 nM HH. Here is the method: as §1

Structures can show the parent of a compound that is named as a salt.

`Cc1nccc2c1[nH]c1cc(O)ccc12` [HH, harmol hydrochloride]: the “Nkx3.1 transcription (normalized to RPL19)” value on endogenous AR [1] (No DHT = 1, 3 nM DHT = 1.08) is 1.55; at endogenous AR [2] (No DHT = 1, 3 nM DHT = 2.00), 1.28. For the same molecule, the “TMPRSS2 transcription (normalized to RPL19)” value is 1.86 on endogenous AR [1] (No DHT = 1, 3 nM DHT = 1.13) and 1.22 at endogenous AR [2] (No DHT = 1, 3 nM DHT = 3.70). For the same molecule, the “KLK3 transcription (normalized to RPL19)” value on endogenous AR [1] (No DHT = 1, 3 nM DHT = 1.97) was determined as 1.64; on endogenous AR [2] (No DHT = 1, 3 nM DHT = 1.89), 1.46. Besides, the “FKBP51 transcription (normalized to RPL19)” value on endogenous AR [1] (No DHT = 1, 3 nM DHT = 21.4) is given as 11.96; at endogenous AR [2] (No DHT = 1, 3 nM DHT = 2.15), 1.90. Also, the “RDC1 transcription (normalized to RPL19)” value on endogenous AR [1] (androgen-repressed gene, No DHT = 1, 3 nM DHT = 0.63) stood at 2.88; at endogenous AR [2] (androgen-repressed gene, No DHT = 1, 3 nM DHT = 0.66), 1.22. Moreover, the “MMP16 transcription (normalized to RPL19)” value on endogenous AR [1] (androgen-repressed gene, No DHT = 1, 3 nM DHT = 0.71) is recorded as 4.74; at endogenous AR [2] (androgen-repressed gene, No DHT = 1, 3 nM DHT = 0.61), 1.02.
